Test system: keratinocyte cell lines HaCAT
Test: In vitro cell migration assay (Oris Cell Migration Assay kit)
Type: cell-based, human
Set-up: Average OD: scale not given here
Conditions: for % activity/TGFβ / % activity/negative control / Average OD: HaCaT migration
Method: The purpose of this study was to assess the effect of zinc sucrose octasulfate on cell migration of keratinocyte cell lines HaCAT, using an Oris Cell Migration Assay Kit (Platypus Technologies). This study was carried out in comparison with potassium sucrose octasulfate, and sodium sucrose octasulfate.
Spontaneously immortalized human keratinocyte cell line HaCaT, frequently referred to in literature as a standard model.
The protocol used for the cell migration study is based on the use of a 96-well Oris Cell Migration Assay kit (Platypus Technologies-TEBU), providing miniaturization and quantification of this cell process.
The principle of this assay is to investigate the cell migration towards the centre of the well of a 96-well plate. A stopper is placed in some wells, in order to create a detection zone of 2 mm in diameter. Then the stoppers are removed after the cells have well adhered to the surface around them, thus allowing the cells to migrate towards the detection zone. The plates without the stoppers and with the active substances are incubated at 37° C. for 24 hours in DMEM 0% SVF. Following this, the amount of cells located in the zone where the stopper was, is analyzed, in order to assess cell migration. A mask restricts visualization and reading to cells located in this zone only. For each condition, the average for 4 to 8 wells is calculated.
The results are expressed as OD (proportional to the amount of migrated cells).
Percent activity with regard to the negative control is calculated as: […]
Percent activity with regard to TGFβ is calculated as: […]

[1] = Experiment 1, 1 μM, 24 hours at 37° C., DMEM 0% SVF, OD proportional to amount of migrated cells
[2] = Experiment 2, 1 μM, 24 hours at 37° C., DMEM 0% SVF, OD proportional to amount of migrated cells
[3] = summary statement, no concentration given
[4] = Experiment 1, 5 ng/mL, 24 hours, positive control
[5] = Experiment 2, 5 ng/mL, 24 hours, positive control

| Molecule | % activity/TGFβ (Experiment 1, 1 μM, 24 hours) | % activity/negative control (Experiment 1, 1 μM, 24 hours) | Average OD [1] | % activity/TGFβ (Experiment 2, 1 μM, 24 hours) | % activity/negative control (Experiment 2, 1 μM, 24 hours) | Average OD [2] | induction of keratinocyte migration (in words) (at the concentrations tested) | induction of keratinocyte migration (in words) [3] | induction of keratinocyte migration (in words) (5 ng/mL, both experiments, positive control) | % activity/negative control [4] | Average OD [4] | % activity/negative control [5] | Average OD [5] | activity compared with the positive control TGFβ (in words) (1 μM vs TGFβ 5 ng/mL) | induction of keratinocyte migration (in words) (1 μM, both experiments) |
| --- | --- | --- | --- | --- | --- | --- | --- | --- | --- | --- | --- | --- | --- | --- | --- |
| O=S(=O)([O-])OC[C@H]1O[C@@](COS(=O)(=O)[O-])(O[C@H]2O[C@H](COS(=O)(=O)[O-])[C@@H](OS(=O)(=O)[O-])[C@H](OS(=O)(=O)[O-])[C@H]2OS(=O)(=O)[O-])[C@@H](OS(=O)(=O)[O-])[C@@H]1OS(=O)(=O)[O-].[K+].[K+].[K+].[K+].[K+].[K+].[K+].[K+] [SOS-K, Potassium sucrose octasulfate] | 6.9% | 113.5% | 99.5 | 42.2% | 135.3% | 321.3 | do not induce keratinocyte migration | do not induce cell migration | – | – | – | – | – | – | – |
| O=S(=O)([O-])OC[C@H]1O[C@@](COS(=O)(=O)[O-])(O[C@H]2O[C@H](COS(=O)(=O)[O-])[C@@H](OS(=O)(=O)[O-])[C@H](OS(=O)(=O)[O-])[C@H]2OS(=O)(=O)[O-])[C@@H](OS(=O)(=O)[O-])[C@@H]1OS(=O)(=O)[O-].[Na+].[Na+].[Na+].[Na+].[Na+].[Na+].[Na+].[Na+] [SOS-Na, Sodium sucrose octasulfate] | −34.6% | 32.6% | 28.6 | −47.1% | 59.9% | 142.3 | do not induce keratinocyte migration | do not induce cell migration | – | – | – | – | – | – | – |
| TGFβ: Positive control: TGFβ1, polypeptide growth factor | – | – | – | – | – | – | – | – | induces keratinocyte migration reproducibly | 294.9% | 258.6 | 183.8% | 436.3 | – | – |
| zinc sucrose octasulfate [SOS-Zn] | 128.3% | 350.0% | 306.9 | 90.7% | 176.0% | 417.8 | – | induces keratinocyte migration | – | – | – | – | – | as active as the positive control TGFβ | induces cell migration reproducibly |
